{"source": "patent US4923878A", "about": "“Quinolizine sulfonamides used against certain neoplastic disease states” (Merck & Co., Inc., priority 1988, dated 1990)", "key": {"A498": {"system": "A498", "assay": "MTT-microculture tetrazolium assay, growth inhibition of renal A498 cells", "format": "cell-based", "details": "Homo sapiens, 144 h; Renal cell line A498; 6 days at 37° C.; 0.5% DMSO", "from_the_text": "(§1) Tests carried out in accordance with the procedures described in Cancer Research 48, 589-601, February 1988, Feasibility of Drug Screening with Panels of Human Tumor Cell Lines Using a Microculture Tetrazolium Assay--Shoemaker et al., and Cancer Research 48, 4827-4833, September 1988, Evaluation of a Soluble Tetrazolium/Formazan Assay for Cell Growth and Drug Sensitivity in Culture using Human and other Tumor Cell Lines--Shoemaker et al. A brief description of this procedure follows. For further details refer to the above identified articles.\n(§2) The procedure was carried out on cell lines from various disease types. Cell lines were maintained as stocks in RPMI 1640 (Quality Biological, Gaithersburg, Md.) supplemented with 10% fetal bovine serum (Sterile Systems, Logon, UT) and 2mM L-glutamine (Central Medium Laboratory, NCI FCRF). Cell cultures were passaged once or twice weekly using trypsin-EDTA(Central Medium Laboratory, NCI-FCRF) to detach the cells from their culture flasks. […]\n(§3) Cellular growth in the presence or absence of the test compound was determined using the MTT-microculture tetrazolium assay. In the MTT assay rapidly growing cells are harvested, counted and inoculated at the appropriate concentrations (100-μl volume) into 96-well microtiter plates using a multichannel pipet. […]"}, "A704": {"system": "A704", "assay": "MTT-microculture tetrazolium assay, growth inhibition of renal A704 cells", "format": "cell-based", "details": "Homo sapiens, 144 h; Renal cell line A704; 6 days at 37° C.; 0.5% DMSO", "from_the_text": "as §1, §2, §3"}, "[1]": {"system": "cell lines derived from renal carcinomas", "assay": "MTT-microculture tetrazolium assay, growth inhibition of cell lines derived from renal carcinomas", "format": "cell-based, human", "details": "at the indicated concentrations; 6 days at 37° C.", "from_the_text": "as §1, §2, §3"}, "SN-12KI": {"system": "SN-12KI", "assay": "MTT-microculture tetrazolium assay, growth inhibition of renal SN-12KI cells", "format": "cell-based", "details": "Homo sapiens, 144 h; Renal cell line SN-12KI; 6 days at 37° C.; 0.5% DMSO", "from_the_text": "as §1, §2, §3"}}, "data": [{"smiles": "CS(=O)(=O)NCCN[C@@H]1CCN2CCc3c(oc4ccccc34)[C@@H]2C1", "note": "(relative stereo) [(2RS,12bSR)-N-[2-(1,3,4,6,7,12b-hexahydro-2H-benzo[b]furo[2,3-a]quinolizin-2-yl)]-N-2-((methanesulfonyl)ethyl)amine]", "values": [{"measurement": "IC50", "setting": "A498", "result": 1600, "unit": "nM"}, {"measurement": "IC50", "setting": "A704", "result": 160, "unit": "nM"}, {"measurement": "growth inhibition of cell lines derived from renal carcinomas (in words)", "setting": "[1]", "result": "selectively inhibit the growth of cell lines derived from renal carcinomas"}, {"measurement": "IC50", "setting": "SN-12KI", "result": 6300, "unit": "nM"}]}]}
